In brackets after ≈: the same amount, converted by molar mass. One block for each compound: values may come before it.
Columns and labels:
[1] = Thermodynamic solubility of compound in water at 2 mg after 24 hrs; type: physicochemical; conditions: read-out: Therm_solubility
[2] = Thermodynamic solubility of compound in plON buffer at 2 mg after 24 hrs; type: physicochemical; conditions: read-out: Therm_solubility
[3] = Selectivity index, ratio of CC50 for human CEM-SS cells to EC50 for Antiviral activity against HIV1 3B infected in human CEM-SS cells; type: toxicity, cell-based; conditions: for selectivity ratio: CEM-SS cells, read-out: Ratio CC50/EC50
[4] = Cytotoxicity against human CEM-SS cells assessed as reduction in cell viability by XTT assay; type: cell-based
[5] = test system: Human immunodeficiency virus 1; assay: Antiviral activity against HIV1 3B infected in human CEM-SS cells assessed as reduction in cytopathic effect after 4 days; type: functional, organism-based
[6] = Tmax in Sprague-Dawley rat at 1 mg/kg, iv up to 24 hrs by LC-MS/MS analysis; type: ADME, organism-based; conditions: in vivo
[7] = Stability in human plasma assessed as parent compound remaining at 1 uM up to 24 hrs by LC-MS/MS analysis; type: ADME, cell-free; conditions: read-out: Stabilty
Cytochrome P450 2C19 = Cytochrome P450 2C19 (Homo sapiens, UniProt P33261); assay: Inhibition of CYP2C19 in human liver microsomes using S-mephenytoin as substrate incubated for 30 mins by LC-MS/MS analysis; type: ADME
Cytochrome P450 2D6 = Cytochrome P450 2D6 (Homo sapiens, UniProt P10635); assay: Inhibition of CYP2D6 in human liver microsomes using dextromethorphan as substrate incubated for 30 mins by LC-MS/MS analysis; type: ADME
[8] = Stability in rat liver microsomes assessed as parent compound remaining at 1 uM up to 24 hrs by LC-MS/MS analysis; type: ADME, Microsome; conditions: read-out: Stabilty
Cytochrome P450 2C8 = molecular target: T1, Cytochrome P450 2C8 (Homo sapiens, UniProt P10632); assay: Inhibition of CYP2C8 in human liver microsomes using amodiaquine as substrate incubated for 30 mins by LC-MS/MS analysis; type: ADME
T1 sequence (P10632 whole entry): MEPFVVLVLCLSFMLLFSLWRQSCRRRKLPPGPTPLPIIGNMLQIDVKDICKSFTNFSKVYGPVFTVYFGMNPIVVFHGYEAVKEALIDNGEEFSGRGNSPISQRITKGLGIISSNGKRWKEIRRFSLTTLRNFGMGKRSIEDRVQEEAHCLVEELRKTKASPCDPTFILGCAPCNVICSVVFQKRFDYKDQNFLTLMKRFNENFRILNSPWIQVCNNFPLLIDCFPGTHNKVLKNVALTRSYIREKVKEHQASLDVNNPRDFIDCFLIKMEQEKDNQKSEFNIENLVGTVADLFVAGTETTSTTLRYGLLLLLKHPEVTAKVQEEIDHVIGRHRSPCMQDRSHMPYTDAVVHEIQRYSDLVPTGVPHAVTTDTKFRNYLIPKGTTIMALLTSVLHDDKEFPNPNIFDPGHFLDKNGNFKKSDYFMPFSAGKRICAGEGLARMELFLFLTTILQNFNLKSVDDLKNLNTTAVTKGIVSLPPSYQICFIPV

Cytochrome P450 3A4 = Cytochrome P450 3A4 (Homo sapiens, UniProt P08684); assay: Inhibition of CYP3A4 in human liver microsomes using midazolam as substrate incubated for 30 mins by LC-MS/MS analysis; type: ADME
[9] = Stability in human liver microsomes assessed as parent compound remaining at 1 uM up to 24 hrs by LC-MS/MS analysis; type: ADME, Microsome; conditions: read-out: Stabilty
[10] = Drug concentration in Sprague-Dawley rat at 1 mg/kg, iv after 24 hrs by LC-MS/MS analysis; type: ADME, organism-based; conditions: in vivo, read-out: Drug uptake
[11] = Elimination rate constant Sprague-Dawley rat at 1 mg/kg, iv up to 24 hrs by LC-MS/MS analysis; type: ADME, organism-based; conditions: in vivo
Cytochrome P450 1A2 = molecular target: T2, Cytochrome P450 1A2 (Homo sapiens, UniProt P05177); assay: Inhibition of CYP1A2 in human liver microsomes using phenacetin as substrate incubated for 30 mins by LC-MS/MS analysis; type: ADME
T2 sequence (P05177 whole entry): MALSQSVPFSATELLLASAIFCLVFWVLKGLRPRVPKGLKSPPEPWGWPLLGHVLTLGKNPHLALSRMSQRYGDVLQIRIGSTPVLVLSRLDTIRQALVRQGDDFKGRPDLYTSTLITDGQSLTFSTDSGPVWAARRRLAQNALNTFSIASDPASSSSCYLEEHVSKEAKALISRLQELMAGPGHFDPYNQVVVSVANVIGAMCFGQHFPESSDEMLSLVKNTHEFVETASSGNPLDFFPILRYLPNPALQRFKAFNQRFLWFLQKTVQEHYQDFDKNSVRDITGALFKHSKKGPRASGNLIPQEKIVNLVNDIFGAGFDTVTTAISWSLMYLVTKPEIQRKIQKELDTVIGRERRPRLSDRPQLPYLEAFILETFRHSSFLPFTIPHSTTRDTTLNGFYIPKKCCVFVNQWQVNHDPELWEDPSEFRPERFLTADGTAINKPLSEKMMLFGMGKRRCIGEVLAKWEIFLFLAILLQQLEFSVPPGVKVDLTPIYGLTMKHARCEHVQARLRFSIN

Cytochrome P450 2C9 = Cytochrome P450 2C9 (Homo sapiens, UniProt P11712); assay: Inhibition of CYP2C9 in human liver microsomes using tolbutamide as substrate incubated for 30 mins by LC-MS/MS analysis; type: ADME
[12] = Tmax in Sprague-Dawley rat at 5 mg/kg, po up to 24 hrs by LC-MS/MS analysis; type: ADME, organism-based; conditions: in vivo
[13] = Protein binding in human plasma at 1 uM after 4 hrs by LC-MS/MS analysis; type: ADME, cell-free; conditions: read-out: PPB
[14] = Protein binding in rat plasma at 1 uM after 4 hrs by LC-MS/MS analysis; type: ADME, cell-free; conditions: read-out: PPB (converted)
[15] = Elimination rate constant Sprague-Dawley rat at 5 mg/kg, po up to 24 hrs by LC-MS/MS analysis; type: ADME, organism-based; conditions: in vivo
[16] = Drug concentration in Sprague-Dawley rat at 5 mg/kg, po after 8 hrs by LC-MS/MS analysis; type: ADME, organism-based; conditions: in vivo, read-out: Drug uptake
[17] = Oral bioavailability in Sprague-Dawley rat at 5 mg/kg up to 24 hrs by LC-MS/MS analysis; type: ADME, organism-based; conditions: in vivo
[18] = Stability in rat plasma assessed as parent compound remaining at 1 uM up to 24 hrs by LC-MS/MS analysis; type: ADME, cell-free; conditions: read-out: Stabilty
[19] = Drug concentration in Sprague-Dawley rat at 5 mg/kg, po after 24 hrs by LC-MS/MS analysis; type: ADME, organism-based; conditions: in vivo, read-out: Drug uptake
[20] = Drug concentration in Sprague-Dawley rat at 1 mg/kg, iv after 8 hrs by LC-MS/MS analysis; type: ADME, organism-based; conditions: in vivo, read-out: Drug uptake
[21] = test system: Human immunodeficiency virus 1; assay: Antiviral activity against HIV1 3B infected in human CEM-SS cells assessed as reduction in cytopathic effect at 2 nM after 4 days; type: functional; set-up: scale not given: the % may be the effect or the level left; conditions: time 4 day
[22] = test system: Human immunodeficiency virus 1; assay: Antiviral activity against HIV1 3B; type: functional, organism-based; conditions: Human immunodeficiency virus 1, 3B
[23] = Human immunodeficiency virus 1, 3B, CEM-SS, 96 h

Chain of Cytochrome P450 3A4 (P08684 whole entry): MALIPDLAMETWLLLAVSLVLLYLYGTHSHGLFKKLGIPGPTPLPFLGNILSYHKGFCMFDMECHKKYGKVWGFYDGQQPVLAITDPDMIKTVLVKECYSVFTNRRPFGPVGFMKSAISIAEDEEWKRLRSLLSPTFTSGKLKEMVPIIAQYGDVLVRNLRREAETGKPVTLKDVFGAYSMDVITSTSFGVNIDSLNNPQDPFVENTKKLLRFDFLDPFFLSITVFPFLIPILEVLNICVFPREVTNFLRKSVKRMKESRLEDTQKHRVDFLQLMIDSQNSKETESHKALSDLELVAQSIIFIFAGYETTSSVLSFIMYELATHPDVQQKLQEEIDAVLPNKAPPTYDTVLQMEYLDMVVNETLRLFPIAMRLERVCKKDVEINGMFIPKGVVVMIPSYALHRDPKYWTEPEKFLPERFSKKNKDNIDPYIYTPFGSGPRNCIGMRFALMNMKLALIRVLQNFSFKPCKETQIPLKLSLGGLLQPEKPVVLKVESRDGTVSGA
Chain of Cytochrome P450 2C9 (P11712 whole entry): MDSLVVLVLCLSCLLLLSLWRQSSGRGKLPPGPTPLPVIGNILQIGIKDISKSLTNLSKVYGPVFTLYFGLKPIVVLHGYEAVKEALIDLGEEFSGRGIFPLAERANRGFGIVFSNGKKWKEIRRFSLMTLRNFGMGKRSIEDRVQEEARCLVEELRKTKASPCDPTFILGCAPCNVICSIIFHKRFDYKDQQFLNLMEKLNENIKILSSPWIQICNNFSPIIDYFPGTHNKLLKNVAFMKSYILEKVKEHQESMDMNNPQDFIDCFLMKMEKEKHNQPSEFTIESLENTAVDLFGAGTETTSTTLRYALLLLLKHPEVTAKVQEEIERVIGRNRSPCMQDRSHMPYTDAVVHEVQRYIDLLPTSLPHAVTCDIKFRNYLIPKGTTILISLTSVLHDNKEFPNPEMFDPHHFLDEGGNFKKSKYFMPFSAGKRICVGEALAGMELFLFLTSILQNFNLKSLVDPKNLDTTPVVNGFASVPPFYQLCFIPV
Chain of Cytochrome P450 2C19 (P33261 whole entry): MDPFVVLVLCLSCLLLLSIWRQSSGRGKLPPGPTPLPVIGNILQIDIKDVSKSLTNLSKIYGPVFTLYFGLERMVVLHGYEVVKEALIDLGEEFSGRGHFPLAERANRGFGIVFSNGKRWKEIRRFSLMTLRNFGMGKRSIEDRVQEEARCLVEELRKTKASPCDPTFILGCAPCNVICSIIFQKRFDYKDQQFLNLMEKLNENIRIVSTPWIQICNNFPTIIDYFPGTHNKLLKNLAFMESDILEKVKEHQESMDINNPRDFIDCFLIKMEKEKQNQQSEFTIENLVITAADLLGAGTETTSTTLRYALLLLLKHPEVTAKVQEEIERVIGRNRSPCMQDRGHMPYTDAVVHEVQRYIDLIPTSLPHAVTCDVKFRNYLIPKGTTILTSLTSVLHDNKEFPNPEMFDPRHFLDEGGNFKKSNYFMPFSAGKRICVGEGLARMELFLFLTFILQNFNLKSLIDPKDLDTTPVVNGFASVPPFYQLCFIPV
Chain of Cytochrome P450 2D6 (P10635 whole entry): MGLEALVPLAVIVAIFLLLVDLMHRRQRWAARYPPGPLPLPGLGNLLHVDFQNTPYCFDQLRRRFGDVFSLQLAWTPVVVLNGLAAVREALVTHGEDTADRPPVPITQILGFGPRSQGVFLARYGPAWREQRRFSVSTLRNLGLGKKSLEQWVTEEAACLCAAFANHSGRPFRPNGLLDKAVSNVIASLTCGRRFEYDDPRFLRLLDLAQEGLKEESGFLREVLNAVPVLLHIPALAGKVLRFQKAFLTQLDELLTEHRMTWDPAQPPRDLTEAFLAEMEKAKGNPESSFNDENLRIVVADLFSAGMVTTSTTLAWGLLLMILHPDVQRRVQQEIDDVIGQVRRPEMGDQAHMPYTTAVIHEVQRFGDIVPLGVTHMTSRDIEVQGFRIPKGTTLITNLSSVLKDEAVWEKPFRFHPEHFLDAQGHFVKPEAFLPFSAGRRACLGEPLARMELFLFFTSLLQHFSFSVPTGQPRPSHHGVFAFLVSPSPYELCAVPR

solubility thermodynamic at 24 h [1]: 31 µg/mL (≈ 73.7 µM)
solubility thermodynamic at 24 h [2]: 8 µg/mL (≈ 19 µM)
Structure (SMILES): C[C@H]1CO[C@@H]2Cn3cc(C(=O)NCc4ccnc5ccccc45)c(=O)c(O)c3C(=O)N12

solubility thermodynamic at 24 h [1]: 131 µg/mL (≈ 322 µM)
solubility thermodynamic at 24 h [2]: 196 µg/mL (≈ 482 µM)
Structure (SMILES): C[C@H]1CO[C@@H]2Cn3cc(C(=O)NCc4ncc(F)cc4F)c(=O)c(O)c3C(=O)N12

solubility thermodynamic at 24 h [1]: 347 µg/mL (≈ 854 µM)
solubility thermodynamic at 24 h [2]: 380 µg/mL (≈ 935 µM)
EC50 [5, 23]: 2.63 nM
Structure (SMILES): C[C@H]1CO[C@@H]2Cn3cc(C(=O)NCc4c(F)cncc4F)c(=O)c(O)c3C(=O)N12
selectivity ratio [3]: > 3.8
CC50 [4]: > 10 nM

Tmax [6]: 4.8 min
remaining at 24 h, 1 µM [7]: 95%
IC50 (Cytochrome P450 2C19): > 10000 nM
IC50 (Cytochrome P450 2D6): > 10000 nM
remaining at 24 h, 1 µM [8]: 83.8%
solubility thermodynamic at 24 h [1]: 269 µg/mL (≈ 662 µM)
IC50 (Cytochrome P450 2C8): > 10000 nM
IC50 (Cytochrome P450 3A4): > 10000 nM
solubility thermodynamic at 24 h [2]: 232 µg/mL (≈ 571 µM)
remaining at 24 h, 1 µM [9]: 84%
EC50 ([5]; cem-ss): 0.24 nM
concentration at 24 h [10]: 5430 ng/mL
k el at 24 h [11]: 8.33e-06 s⁻¹
IC50 (Cytochrome P450 1A2): > 10000 nM
IC50 (Cytochrome P450 2C9): > 10000 nM
Tmax [12]: 3 h
fraction unbound at 4 h, 1 µM [13]: 0.001
fraction unbound at 4 h, 1 µM [14]: 0.011
k el at 24 h [15]: 1.11e-05 s⁻¹
concentration at 8 h [16]: 7910 ng/mL
bioavailability [17]: 17.5%
remaining at 24 h, 1 µM [18]: 94.5%
concentration at 24 h [19]: 4440 ng/mL
concentration at 8 h [20]: 8620 ng/mL
Structure (SMILES): C[C@H]1CO[C@@H]2Cn3cc(C(=O)NCc4ccc(F)nc4F)c(=O)c(O)c3C(=O)N12
Ratio CC50/EC50 [3]: > 41.7
CC50 [4]: > 10 nM

solubility thermodynamic at 24 h [1]: 56 µg/mL (≈ 127 µM)
solubility thermodynamic at 24 h [2]: 70 µg/mL (≈ 159 µM)
EC50 [5, 23]: > 10 nM
Structure (SMILES): Cc1cc2c(cc1CNC(=O)c1cn3c(c(O)c1=O)C(=O)N1[C@@H](C)CO[C@@H]1C3)OCCO2
CC50 [4]: > 10 nM

solubility thermodynamic at 24 h [1]: 21 µg/mL (≈ 42.7 µM)
solubility thermodynamic at 24 h [2]: 21 µg/mL (≈ 42.7 µM)
EC50 [5, 23]: 1.93 nM
Structure (SMILES): C[C@H]1CO[C@@H]2Cn3cc(C(=O)NCc4cc5c(cc4Br)OCO5)c(=O)c(O)c3C(=O)N12
selectivity ratio [3]: > 5.2
CC50 [4]: > 10 nM

Structure (SMILES): C[C@H]1CO[C@@H]2Cn3cc(C(=O)NCc4ccc(F)cc4F)c(=O)c(O)c3C(=O)N12 [CABOTEGRAVIR]
Activity [21]: >50%

EC50 [22]: 1 nM
Structure (SMILES): O=C(NCc1c(F)cc(F)cc1F)c1cn2c(c(O)c1=O)C(=O)N1[C@H]3CC[C@H](C3)O[C@@H]1C2 [BICTEGRAVIR]
